Reference: ChEMBL document CHEMBL4041504, “Differential characterization using readily accessible NMR experiments of novel N- and O-alkylated quinolin-4-ol, 1,5-naphthyridin-4-ol and quinazolin-4-ol derivatives with antimycobacterial activity” (Eur J Med Chem, 2017)
Values after ≈ are worked out from the molar mass of the structure shown.

Assays:
[1] = test system: HepG2; assay: Cytotoxicity against human HepG2 cells assessed as reduction in cell viability after 48 hrs by CellTiter Glo assay; format: cell-based; conditions: HepG2, 48 h
[2] = test system: Mycobacterium tuberculosis; assay: microbe, parasite or virus in culture; conditions: H37Rv ATCC 25618, 144 h
Description: Antimycobacterial activity against Mycobacterium tuberculosis H37Rv ATCC 25618 after 6 days by resazurin dye based assay

[3] = Permeability of the compound by PAMPA; format: physicochemical; conditions: read-out: permeability
[4] = Kinetic aqueous solubility of the compound by chemiluminescent nitrogen detection assay; format: physicochemical; conditions: read-out: Kinetic_solubility
[5] = Lipophilicity, log D of the compound at pH 7.4 by chromatographic method; format: physicochemical; conditions: buffer

Compound | IC50 [1] | MIC [2] | Papp [3] | solubility kinetic [4] | chromatographic logD [5]
COc1ccc2nc(C)cc(OCC(=O)Nc3cc(C)cc(C)c3)c2c1 | 20 µM | 1.9 µM (≈ 0.666 µg/mL) | – | – | –
COc1ccc2nccc(OCC(=O)Nc3cc(C)cc(C)c3)c2c1 | 50.1 µM | 10 µM (≈ 3.36 µg/mL) | 28 ×10⁻⁶ cm/s | 51 µM (≈ 17.2 µg/mL) | 5.3
Cc1cc(C)cc(NC(=O)Cn2ccc(=O)c3ccccc32)c1 | 63.1 µM | > 250 µM | 45 ×10⁻⁶ cm/s | 34 µM (≈ 10.4 µg/mL) | 3.54
COc1ccc2nc(C)n(CC(=O)Nc3cc(C)cc(C)c3)c(=O)c2c1 | > 100 µM | 250 µM (≈ 87.9 µg/mL) | 58 ×10⁻⁶ cm/s | 74 µM (≈ 26 µg/mL) | 4.77
COc1ccc2nc(C)cc(OCC(=O)Nc3cc(C)cc(C)c3)c2n1 | > 100 µM | 3.8 µM (≈ 1.34 µg/mL) | 51 ×10⁻⁶ cm/s | 19 µM (≈ 6.68 µg/mL) | 5.57
Cc1cc(C)cc(NC(=O)COc2ccnc3ccccc23)c1 | > 100 µM | > 80 µM | 46 ×10⁻⁶ cm/s | 59 µM (≈ 18.1 µg/mL) | 5.03
Cc1cc(C)cc(NC(=O)Cn2ccc(=O)c3ccc(Cl)cc32)c1 | 100 µM | > 250 µM | 26 ×10⁻⁶ cm/s | 86 µM (≈ 29.3 µg/mL) | 4.39
COc1ccc2c(c1)c(=O)ccn2CC(=O)Nc1cc(C)cc(C)c1 | > 100 µM | > 250 µM | 19 ×10⁻⁶ cm/s | 30 µM (≈ 10.1 µg/mL) | 3.72
COc1ccc2ncn(CC(=O)Nc3cc(C)cc(C)c3)c(=O)c2c1 | > 100 µM | > 250 µM | – | 8 µM (≈ 2.7 µg/mL) | 4.5
COc1ccc2nc(C)nc(OCC(=O)Nc3cc(C)cc(C)c3)c2c1 | > 100 µM | 1.25 µM (≈ 0.439 µg/mL) | 37 ×10⁻⁶ cm/s | 3 µM (≈ 1.05 µg/mL) | 5.59
Cc1cc(C)cc(NC(=O)Cn2cnc3ccccc3c2=O)c1 | 79.4 µM | > 250 µM | 60 ×10⁻⁶ cm/s | 20 µM (≈ 6.15 µg/mL) | 4.29
NNC(=O)c1ccncc1 [ISONIAZID] | – | 3.6 µM (≈ 0.494 µg/mL) | – | – | –
